Experimental findings from article PMC10290335 (Malaria Journal, 2023) are described below.

Series [1] is described as follows: Clinical pharmacokinetics of ivermectin metabolites in blood of healthy volunteers. The series is classed as in vivo, human. The following applies: for Tmax / Cmax [ratio] / Half-life / MRTlast: whole blood, 12 subjects, mean ± SE; for Tmax: single oral 12 mg ivermectin; for Cmax [ratio]: area/internal standard area ratio; for Cmax [ratio] / Half-life / MRTlast: 12 mg ivermectin, NCA. On the procedure: Peripheral venous blood samples were collected before dosing and after 1, 2, 4, 6, 8, 12, 24, 48 and 72 h. Blood samples (50 µL) were extracted by the addition of 150 µL ISTD solution. Samples were mixed for 1 min and centrifuged for 30 min at 3220×g and 15 °C (5810 R centrifuge). Twenty microlitres of supernatant were injected into the LC–MS/MS system to determine the signal intensity of the metabolites.
The different LC–MS/MS settings were applied for the metabolism, pharmacokinetic and metabolite fractioning assays (Additional file 1: Table S1, S2, S3). All analyses were performed on a modular HPLC (Shimadzu, Kyoto, Japan) composed of four pumps (2 × LC-30AD, 2 × LC-20AD), an autosampler (SIL 30-AC MP), a system controller (CBM-20A), two degassing units (DGU-20A5 and DGU-20A3R), a column oven (CTO-20AC), a low-pressure valve (FCV-12AH), and a fraction collector (FRC-12A). The HPLC system was connected to an API 5000 triple quadrupole mass spectrometer (AB Sciex, Ontario, Canada) that was equipped with a turbo electrospray ionization source. The system was operated with Analyst Software 1.7 (AB Sciex) and acquired data were analysed using MultiQuant Software 3.0.3 (AB Sciex).
The integral method “linear up log down” was used on area/internal standard area ratio.
In total, three T0 blank blood samples originating from different PK study participants were used to resuspend the metabolites (Additional file 1: Table S5). The signal intensity was recorded for every metabolite by extracting the 50 µL blood with 150 µL of ISTD solution. The metabolite peak area was determined by LC–MS/MS (see section LC-MS/MS analysis of ivermectin). Moreover, the PK samples of all study participants were equally extracted and analysed to derive the maximal blood level (Cmax) from the blood level-time curves. Afterwards, the mean metabolite peak area of the spiked blank blood was compared with the mean peak area of the Cmax samples (Additional file 1: Table S5). The amount of each metabolite fraction was either reduced or increased to match the peak area of Cmax samples. If the metabolite was not detectable in PK samples, the amount of metabolite was adjusted to the lower limit of detection of the method. In this case, blank blood was spiked with the metabolite fraction to receive a signal intensity that is three times larger than the corresponding noise level.

Series [2] has as its system Anopheles stephensi mosquitoes. Kind of series: Anopheles stephensi membrane feeding screening assay (survival and activity). Format: in vivo. Particulars: for Average activity score: score +2 flying, +1 moving, 0 dead; for activity against An. stephensi: at Cmax levels observed in clinical PK samples. On the procedure:
The final DMSO content in blood was 0.1%, which was also the DMSO concentration used for the negative control assays (0.1% DMSO in blank blood). Inclusion of blank fractions as additional negative controls were not considered, because it would not have been feasible to also test the corresponding blank fraction for each metabolite fraction (F1–F9). The blood preparations were rotated at room temperature for 20 min to ensure a uniform metabolite distribution (Rotator Genie, Scientific Industries, Bohemia, USA). The dissolution of the metabolites was confirmed by LC–MS/MS.
Around 50–70 female mosquitoes aged 5–10 days post-emergence were transferred with a mouth aspirator into 20 mL paper cups. A piece of mosquito netting was used to cover the cups. Mosquitoes were starved for 24 h before treatment. The mosquito blood meals were heated in a water bath (SAHARA PPO S5P Heated Bath Circulators, Thermo Fisher Scientific, New Hampshire, USA) for 20 min at 39 °C. A Petri dish (35 mm × 10 mm, BD, Franklin Lakes, USA) was filled with 3 mL of warm blood, sealed with a piece of sealing film (Parafilm®, Huberlab AG, Aesch, Switzerland). The Petri dish was placed upside down on top of the net sealing the paper cup. Female mosquitoes were allowed to feed for 20 min on the blood through the net and the sealing film. The feeding was conducted in a climate chamber (HPP110, Memmert GmbH + Co.KG, Schwabach, Germany) at 27 °C, 70% humidity, and 30% light intensity. After feeding, the cups were put on ice to immobilise the mosquitoes and only the fully engorged mosquitoes were selected for the assay. The mosquitoes were returned to the climate chamber to assess their activity and survival for 3 days.
In the framework of screening assays, mosquitoes were treated with blood containing each metabolite corresponding to Cmax levels observed in PK samples. […] In screening assays, eleven treatments were evaluated with three replicates using three batches of 50–70 mosquitoes.

The mark [3] stands for this setting: mean of PK subjects 1-12, 50 µL blood.

As a reminder, the Tmax is the time at which the peak concentration occurs.

On to `CC[C@H](C)[C@H]1O[C@]2(CC[C@@H]1CO)C[C@@H]1C[C@@H](C/C=C(\C)[C@@H](O[C@H]3C[C@H](OC)[C@@H](O)[C@H](C)O3)[C@@H](C)/C=C/C=C3\CO[C@@H]4[C@H](O)C(C)=C[C@@H](C(=O)O1)[C@]34O)O2` [M5, 24-hydroxy-H2B1a monosaccharide], for which the “Observed Cmax, peak area” value was found to be 7.86E+02 counts in series [1] (PK subject 1, 50 µL blood); 5.85E+02 counts in series [1] (PK subject 2, 50 µL blood); 1.01E+03 counts in series [1] (PK subject 3, 50 µL blood); 7.22E+02 counts in series [1] (PK subject 4, 50 µL blood); 6.06E+02 counts in series [1] (PK subject 5, 50 µL blood); 1.25E+03 counts in series [1] (PK subject 6, 50 µL blood). Moreover, the “Observed Cmax, peak area” value in series [1] (PK subject 7, 50 µL blood) was determined as 8.58E+02 counts; in series [1] (PK subject 8, 50 µL blood), 6.84E+02 counts; in series [1] (PK subject 9, 50 µL blood) it was 6.59E+02 counts; in series [1] (PK subject 10, 50 µL blood), 7.23E+02 counts; in series [1] (PK subject 11, 50 µL blood), 8.95E+02 counts; in series [1] (PK subject 12, 50 µL blood), 7.29E+02 counts. Moreover, the “Observed Cmax, peak area” value in series [1] (setting [3]) is on record as 7.92E+02 counts. Also, in series [1], the Tmax is on record as 6.4 ± 0.4 h. The Average activity score is reported as 2.00 in series [2] (0 h post feeding), 1.90 in series [2] (24 h post feeding), 1.86 in series [2] (48 h post feeding) and 1.81 in series [2] (72 h post feeding).
In the case of `CCC(C)C1OC2(CCC1C)CC1CC(CC=C(C)C(OC3CC(OC)C(OC4CC(O)C(O)C(C)O4)C(C)O3)C(C)C=CC=C3COC4C(O)C(CO)=CC(C(=O)O1)C34O)O2` (centres unmarked) [M4, 3″-O-desmethyl, 4-hydroxy-H2B1a], the “Observed Cmax, peak area” value in series [1] (PK subject 1, 50 µL blood) stood at 6.13E+03 counts; in series [1] (PK subject 2, 50 µL blood), 4.65E+03 counts; in series [1] (PK subject 3, 50 µL blood) it was 5.03E+03 counts; in series [1] (PK subject 4, 50 µL blood) it was 4.08E+03 counts; in series [1] (PK subject 5, 50 µL blood), 2.43E+03 counts; in series [1] (PK subject 6, 50 µL blood), 7.98E+03 counts. Further, the “Observed Cmax, peak area” value was 4.09E+03 counts in series [1] (PK subject 7, 50 µL blood); 5.21E+03 counts in series [1] (PK subject 8, 50 µL blood); 4.12E+03 counts in series [1] (PK subject 9, 50 µL blood); 5.38E+03 counts in series [1] (PK subject 10, 50 µL blood); 5.67E+03 counts in series [1] (PK subject 11, 50 µL blood); 5.92E+03 counts in series [1] (PK subject 12, 50 µL blood). Also, the “Observed Cmax, peak area” value in series [1] (setting [3]) was determined as 5.06E+03 counts. For the same molecule, the “Cmax [ratio]” value in series [1] was found to be 0.004 ± 0.0004 ratio. For the same molecule, in series [1], the Half-life was determined as 57.5 ± 13.2 h. The MRTlast in series [1] worked out at 29.4 ± 1.7 h. In series [1], the time to peak (Tmax) came out at 6.0 ± 0.2 h. Besides, the Average activity score in series [2] (0 h post feeding) is reported as 2.00; in series [2] (24 h post feeding), 1.84; in series [2] (48 h post feeding), 1.30; in series [2] (72 h post feeding), 0.57. In addition, the “activity against An. stephensi” value in series [2] is recorded as “minor mosquitocidal properties”. Besides, the “mean survival of mosquitoes after blood meal” value in series [2] (blood meal at Cmax level) is reported as “decreased”. Moreover, the mosquito survival in series [2] (blood meal at Cmax level, observation period of 3 days) is 35%.
Take 3″-O-desmethyl, 26-hydroxy-H2B1a [M6]: the “Observed Cmax, peak area” value was 3.04E+03 counts in series [1] (PK subject 1, 50 µL blood); 1.56E+03 counts in series [1] (PK subject 2, 50 µL blood); 2.10E+03 counts in series [1] (PK subject 3, 50 µL blood); 1.60E+03 counts in series [1] (PK subject 4, 50 µL blood); 1.15E+03 counts in series [1] (PK subject 5, 50 µL blood); 3.23E+03 counts in series [1] (PK subject 6, 50 µL blood). In addition, the “Observed Cmax, peak area” value in series [1] (PK subject 7, 50 µL blood) turned out to be 1.62E+03 counts; in series [1] (PK subject 8, 50 µL blood) it was 1.82E+03 counts; in series [1] (PK subject 9, 50 µL blood), 1.80E+03 counts; in series [1] (PK subject 10, 50 µL blood) it was 1.99E+03 counts; in series [1] (PK subject 11, 50 µL blood) it was 2.12E+03 counts; in series [1] (PK subject 12, 50 µL blood), 2.69E+03 counts. For the same molecule, the “Observed Cmax, peak area” value in series [1] (setting [3]) is 2.06E+03 counts. In addition, in series [1], the “Cmax [ratio]” value was found to be 0.002 ± 0.0002 ratio. Further, the Half-life in series [1] was 32.4 ± 4.1 h. Further, the MRTlast in series [1] was 18.3 ± 1.6 h. In addition, the Tmax in series [1] was found to be 5.4 ± 0.4 h. Besides, the Average activity score in series [2] (0 h post feeding) came out at 2.00; in series [2] (24 h post feeding) it was 1.89; in series [2] (48 h post feeding), 1.91; in series [2] (72 h post feeding), 1.42. Besides, the “activity against An. stephensi” value in series [2] is on record as “minor mosquitocidal properties”. Besides, the “mean survival of mosquitoes after blood meal” value in series [2] (blood meal at Cmax level) is recorded as “decreased”.
With 26-hydroxy-H2B1a [M3], the “Observed Cmax, peak area” value was 6.21E+03 counts in series [1] (PK subject 1, 50 µL blood); 3.33E+03 counts in series [1] (PK subject 2, 50 µL blood); 4.98E+03 counts in series [1] (PK subject 3, 50 µL blood); 2.70E+03 counts in series [1] (PK subject 4, 50 µL blood); 3.63E+03 counts in series [1] (PK subject 5, 50 µL blood); 5.52E+03 counts in series [1] (PK subject 6, 50 µL blood). For the same molecule, the “Observed Cmax, peak area” value came out at 4.44E+03 counts in series [1] (PK subject 7, 50 µL blood); 4.04E+03 counts in series [1] (PK subject 8, 50 µL blood); 3.41E+03 counts in series [1] (PK subject 9, 50 µL blood); 4.42E+03 counts in series [1] (PK subject 10, 50 µL blood); 4.22E+03 counts in series [1] (PK subject 11, 50 µL blood); 4.51E+03 counts in series [1] (PK subject 12, 50 µL blood). Besides, the “Observed Cmax, peak area” value in series [1] (setting [3]) is 4.28E+03 counts. In addition, the “Cmax [ratio]” value in series [1] worked out at 0.003 ± 0.0003 ratio. For the same molecule, in series [1], the Half-life is on record as 15.9 ± 2.8 h. Also, the MRTlast in series [1] was determined as 13.9 ± 1.3 h. Also, the time of peak concentration (Tmax) in series [1] is 5.3 ± 0.2 h. For the same molecule, the Average activity score in series [2] (0 h post feeding) was 2.00; in series [2] (24 h post feeding), 1.82; in series [2] (48 h post feeding) it was 1.86; in series [2] (72 h post feeding), 1.67.
Consider 4, 26-dihydroxy- H2B1a [M8], for which the “Observed Cmax, peak area” value in series [1] (PK subject 1, 50 µL blood) worked out at 7.02E+02 counts; in series [1] (PK subject 2, 50 µL blood), 5.34E+02 counts; in series [1] (PK subject 3, 50 µL blood) it was 4.91E+02 counts; in series [1] (PK subject 4, 50 µL blood), 3.41E+02 counts; in series [1] (PK subject 5, 50 µL blood) it was 3.43E+02 counts; in series [1] (PK subject 6, 50 µL blood) it was 6.41E+02 counts. Also, the “Observed Cmax, peak area” value amounted to 3.42E+02 counts in series [1] (PK subject 7, 50 µL blood); 4.91E+02 counts in series [1] (PK subject 8, 50 µL blood); 4.29E+02 counts in series [1] (PK subject 9, 50 µL blood); 4.93E+02 counts in series [1] (PK subject 10, 50 µL blood); 2.79E+02 counts in series [1] (PK subject 11, 50 µL blood); 4.55E+02 counts in series [1] (PK subject 12, 50 µL blood). Further, the “Observed Cmax, peak area” value in series [1] (setting [3]) is given as 4.62E+02 counts. Besides, the Tmax in series [1] was determined as 5.0 ± 0.3 h. In addition, the Average activity score stood at 2.00 in series [2] (0 h post feeding), 1.91 in series [2] (24 h post feeding), 1.93 in series [2] (48 h post feeding) and 1.68 in series [2] (72 h post feeding).
